In this assay the test system is Plasmodium berghei. The experiment in a line: Luciferase/luciferin-expressing antifolate-resistant parasites were used to infect a culture of HepG2 cells that were pre-incubated with compounds. Infected hepatocytes emit light due to the luciferase reaction. Assay results are presented as the percent inhibition of light emission compared to control. […]. The assay is classed as functional. The conditions noted are these: sporozoite; for IC90: read-out: LUCIFERASE INFECTION ASSAY - IC90.

Regarding `NS(=O)(=O)c1ccc(CCNc2nn3c(-c4ccc(F)c(Cl)c4)cnc3s2)cc1`, the IC90 is > 7.3 µM. The IC50 (FFLUC_HILL_SLOPE 96, FFLUC_R_SQUARED 0.344, HEPG2TOX_HILL_SLOPE 2.59, HEPG2TOX_R_SQUARED 0.44, read-out: LUCIFERASE INFECTION ASSAY - IC50) is > 7.3 µM.
With `O=[N+]([O-])c1cnc(Sc2nc3cc(Cl)ccc3s2)s1`, the IC90 is > 10 µM. Besides, the half-maximal inhibitory concentration (IC50) (FFLUC_HILL_SLOPE 97.7, FFLUC_R_SQUARED 0.0466, read-out: LUCIFERASE INFECTION ASSAY - IC50) was > 10 µM.
`COc1cc(Cl)c(C)cc1NC(=O)Cn1c(=O)c(=O)n(Cc2ccccc2)c2ccc(Cl)cc21`: the IC90 is > 10 µM. The half-inhibitory concentration (IC50) (FFLUC_HILL_SLOPE 92.5, FFLUC_R_SQUARED 0.216, PBLUC_HILL_SLOPE 2.05, PBLUC_R_SQUARED 0.328, read-out: LUCIFERASE INFECTION ASSAY - IC50) came out at 4.54 µM.
Consider `O=C(/C=C/c1ccc(-n2cncn2)c(F)c1)c1cccc(OC(F)F)c1`, for which the IC90 stood at 5.45 µM. Further, the IC50 (FFLUC_HILL_SLOPE 115, FFLUC_R_SQUARED 0.0591, PBLUC_HILL_SLOPE 174, PBLUC_R_SQUARED 0.383, read-out: LUCIFERASE INFECTION ASSAY - IC50) is 5.39 µM.
Regarding `CCc1nnc(SCc2cc(=O)n3c(C)csc3n2)[nH]1`, the IC90 was > 10 µM. Also, under “FFLUC_HILL_SLOPE 120, FFLUC_R_SQUARED 0.18, read-out: LUCIFERASE INFECTION ASSAY - IC50”, the half-inhibitory concentration (IC50) was > 10 µM.
Regarding `CC(C)(C)c1ccc(CSc2nnc(-c3ccco3)n2-c2ccc(OCc3ccccc3)cc2)cc1`, the IC90 is > 6.66 µM. The IC50 (FFLUC_HILL_SLOPE 93.6, FFLUC_R_SQUARED 0.0881, read-out: LUCIFERASE INFECTION ASSAY - IC50) was > 6.66 µM.
As for `O=[N+]([O-])c1cnc(Sc2ccc(C(F)(F)F)cn2)s1`, the IC90 turned out to be 10.5 µM. In addition, the half-maximal inhibitory concentration (IC50) (FFLUC_HILL_SLOPE 78.7, FFLUC_R_SQUARED 0.547, HEPG2TOX_HILL_SLOPE 11.7, HEPG2TOX_R_SQUARED 0.958, PBLUC_HILL_SLOPE 15.1, PBLUC_R_SQUARED 0.404, read-out: LUCIFERASE INFECTION ASSAY - IC50) came out at 9.04 µM.
With `Cc1ccc(N2C(=O)C=CC2=O)cc1Cl`, the IC90 was > 14.9 µM. Moreover, the IC50 (FFLUC_HILL_SLOPE 79.3, FFLUC_R_SQUARED 0.497, PBLUC_HILL_SLOPE 1.92, PBLUC_R_SQUARED 0.35, read-out: LUCIFERASE INFECTION ASSAY - IC50) was 6.38 µM.
For `Cn1ccnc1Sc1c[nH]c(=S)nc1-c1ccc(Cl)cc1`, the IC90 was 9.04 µM. Moreover, the half-inhibitory concentration (IC50) (FFLUC_HILL_SLOPE 122, FFLUC_R_SQUARED 0.312, PBLUC_HILL_SLOPE 4.61, PBLUC_R_SQUARED 0.38, read-out: LUCIFERASE INFECTION ASSAY - IC50) stood at 5.61 µM.
Regarding `O=C1C=CC(=O)N1c1cccc(Cl)c1Cl`, the 90% effect concentration (IC90) was > 13.6 µM. For the setting “FFLUC_HILL_SLOPE 90.3, FFLUC_R_SQUARED 0.368, read-out: LUCIFERASE INFECTION ASSAY - IC50”, the IC50 was > 13.6 µM.
For `Cc1nn(-c2ccccc2)c(C)c1-c1nc(-c2ccccc2)no1`, the concentration for an effect of 90% (IC90) was determined as 5.81 µM. Under “FFLUC_HILL_SLOPE 123, FFLUC_R_SQUARED 0.665, PBLUC_HILL_SLOPE 0.902, PBLUC_R_SQUARED 0.808, read-out: LUCIFERASE INFECTION ASSAY - IC50”, the IC50 was determined as 0.508 µM.
For the compound `Cc1nc(SCc2cccc(C(F)(F)F)c2)c2c(-c3cccs3)csc2n1`, the IC90 is > 10 µM. Besides, the IC50 (FFLUC_HILL_SLOPE 83.3, FFLUC_R_SQUARED 0.372, read-out: LUCIFERASE INFECTION ASSAY - IC50) is > 10 µM.
For the compound `CCOc1cc2c(cc1CNC(=O)Cn1cnc3c(cnn3-c3ccccc3)c1=O)OC(C)C2` (stereo not given), the IC90 was > 10 µM. In addition, the IC50 (FFLUC_HILL_SLOPE 95.3, FFLUC_R_SQUARED 0.504, HEPG2TOX_HILL_SLOPE 1.9, HEPG2TOX_R_SQUARED 0.749, read-out: LUCIFERASE INFECTION ASSAY - IC50) is > 10 µM.
`CCOC(=O)c1c(-c2ccc(F)cc2)csc1NC(=O)CSc1nc2c(c(CC)c1C#N)C(=O)CC(C)(C)C2`: the IC90 was > 10 µM. Moreover, the half-inhibitory concentration (IC50) (FFLUC_HILL_SLOPE 86.7, FFLUC_R_SQUARED 0.56, PBLUC_HILL_SLOPE 13.6, PBLUC_R_SQUARED 0.125, read-out: LUCIFERASE INFECTION ASSAY - IC50) turned out to be 8.71 µM.
As for `CCOC(=O)/C=c1\s/c(=C\c2ccc(N3CCCCC3)c([N+](=O)[O-])c2)c(=O)n1CC(=O)N1CCC(C)CC1`, the IC90 was > 10 µM. Where the note is “FFLUC_HILL_SLOPE 86.1, FFLUC_R_SQUARED 0.469, PBLUC_HILL_SLOPE 14.4, PBLUC_R_SQUARED 0.0813, read-out: LUCIFERASE INFECTION ASSAY - IC50”, the IC50 was > 10 µM.
`Cc1ccc(C(=O)Nc2ccccc2Sc2ncc([N+](=O)[O-])s2)cc1`: the IC90 is > 8.88 µM. For the same compound, the IC50 (FFLUC_HILL_SLOPE 77.3, FFLUC_R_SQUARED 0.701, read-out: LUCIFERASE INFECTION ASSAY - IC50) was > 8.88 µM.
`Cc1ccc2nc(NC(=O)c3ccc(C#N)cc3)c(C(=O)NC3CCCC3)n2c1`: the IC90 stood at 0.336 µM. Also, the 50% inhibitory concentration (IC50) (FFLUC_HILL_SLOPE 93.7, FFLUC_R_SQUARED 0.282, HEPG2TOX_HILL_SLOPE 0.845, HEPG2TOX_R_SQUARED 0.968, PBLUC_HILL_SLOPE 14.4, PBLUC_R_SQUARED 0.874, read-out: LUCIFERASE INFECTION ASSAY - IC50) came to 0.288 µM.
As to `COc1ccc(C2=C(NCCc3ccccc3)c3ccccc3C2=O)cc1`, the IC90 was found to be 0.404 µM. Moreover, the half-inhibitory concentration (IC50) (FFLUC_HILL_SLOPE 105, FFLUC_R_SQUARED 0.774, PBLUC_HILL_SLOPE 1.53, PBLUC_R_SQUARED 0.754, read-out: LUCIFERASE INFECTION ASSAY - IC50) amounted to 0.096 µM.
Regarding `Cc1occc1C(=O)NN=CC1C(=O)N(Cc2ccccc2)C(=O)c2ccccc21` (stereo not given), the IC90 is 7.7 µM. For the same compound, the concentration for half-maximal inhibition (IC50) (FFLUC_HILL_SLOPE 77.8, FFLUC_R_SQUARED 0.432, HEPG2TOX_HILL_SLOPE 1.95, HEPG2TOX_R_SQUARED 0.861, PBLUC_HILL_SLOPE 6.12, PBLUC_R_SQUARED 0.278, read-out: LUCIFERASE INFECTION ASSAY - IC50) was determined as 5.38 µM.
In the case of `O=c1[nH]nc(Sc2ncc([N+](=O)[O-])s2)n1-c1ccccc1C(F)(F)F`, the IC90 is > 8.48 µM. Further, the IC50 (FFLUC_HILL_SLOPE 106, FFLUC_R_SQUARED 0.375, read-out: LUCIFERASE INFECTION ASSAY - IC50) was > 8.48 µM.
For the compound `CN(C)c1ccc(/C=c2\s/c(=C\C#N)n(CC(=O)c3ccccc3)c2=O)cc1`, the IC90 is > 10 µM. In addition, the IC50 (FFLUC_HILL_SLOPE 120, FFLUC_R_SQUARED 0.489, HEPG2TOX_HILL_SLOPE 0.599, HEPG2TOX_R_SQUARED 0.179, PBLUC_HILL_SLOPE 1.11, PBLUC_R_SQUARED 0.152, read-out: LUCIFERASE INFECTION ASSAY - IC50) worked out at 5.8 µM.
Regarding `COc1cc(C2NCC(c3ccccc3Cl)c3c2[nH]c2ccccc32)ccc1OCc1cccc(C(F)(F)F)c1` (stereo not given), the IC90 was > 10 µM. Further, the IC50 (FFLUC_HILL_SLOPE 97, FFLUC_R_SQUARED 0.0371, HEPG2TOX_HILL_SLOPE 1.2, HEPG2TOX_R_SQUARED 0.293, PBLUC_HILL_SLOPE 8.25, PBLUC_R_SQUARED 0.22, read-out: LUCIFERASE INFECTION ASSAY - IC50) was determined as 8.46 µM.
For `O=S(=O)(c1ccc(-c2cc(-c3ccccc3Cl)c3cc(Cl)ccc3n2)cc1)N1CCCCC1`, the concentration for an effect of 90% (IC90) is > 10 µM. Further, where the note is “FFLUC_HILL_SLOPE 79.3, FFLUC_R_SQUARED 0.555, read-out: LUCIFERASE INFECTION ASSAY - IC50”, the IC50 was > 10 µM.
On to `O=C(NNC(=O)c1csc(COc2ccccc2Cl)n1)c1ccc(Cl)cc1`, for which the IC90 came to 7.14 µM. In addition, the IC50 (FFLUC_HILL_SLOPE 94.2, FFLUC_R_SQUARED 0.775, HEPG2TOX_HILL_SLOPE 11.4, HEPG2TOX_R_SQUARED 0.575, PBLUC_HILL_SLOPE 4.49, PBLUC_R_SQUARED 0.337, read-out: LUCIFERASE INFECTION ASSAY - IC50) was determined as 4.37 µM.
Turning to `O=C(Nc1ccc(OC(F)(F)F)cc1)Nc1ccccc1Sc1ncc([N+](=O)[O-])cc1C(F)(F)F`, the 90% effect concentration (IC90) was > 6.37 µM. The IC50 (FFLUC_HILL_SLOPE 90.5, FFLUC_R_SQUARED 0.394, read-out: LUCIFERASE INFECTION ASSAY - IC50) was > 6.37 µM.

A word on the IC50: it is the concentration at which inhibition is half-maximal. The term IC90 denotes the concentration needed for an effect of 90%.

For the origin of these results see ChEMBL document CHEMBL4483862, “Open-source discovery of chemical leads for next-generation chemoprotective antimalarials” (2018).
